In patent US8377974B2 (Millennium Pharmaceuticals, Inc., priority 2004, dated 2013):
pIC50: −log10 of the molar value.

Molecular target: T1, human plasma protein factor Xa (Homo sapiens, UniProt P00742)
T1 construct: measure proteolytic activity of the enzyme (factor Xa); purchased Haematologic Technologies (Essex Junction, Vt.); host or cells: human plasma
Test: Factor Xa IC50 determination: cleavage of paranitroanilide substrate S-2765 in 96-well plates
Format: biochemical
Conditions: fXa 1 nM, S-2765 100 μM, Tris buffered saline pH 7.4, room temperature
Procedure, shortened: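 Human plasma factor Xa (1 nM) preincubated 5 min at room temperature with inhibitor (0.01 nM–10 μM final) in Tris-buffered saline pH 7.4 with 5 mM CaCl2, 0.1% BSA, 5% DMSO. S-2765 at 100 μM final; hydrolysis at 405 nm over 2 min. IC50 from 4-parameter fit of initial velocities.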

T1 sequence (P00742 235-488 limits assumed): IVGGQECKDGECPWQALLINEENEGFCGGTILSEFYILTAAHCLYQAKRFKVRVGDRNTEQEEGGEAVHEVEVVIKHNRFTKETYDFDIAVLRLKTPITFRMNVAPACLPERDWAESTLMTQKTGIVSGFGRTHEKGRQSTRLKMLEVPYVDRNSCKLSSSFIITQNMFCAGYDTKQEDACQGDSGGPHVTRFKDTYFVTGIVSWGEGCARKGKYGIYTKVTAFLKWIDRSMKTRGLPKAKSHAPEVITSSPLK
T1 sequence (P00742 41-179 partner limits assumed): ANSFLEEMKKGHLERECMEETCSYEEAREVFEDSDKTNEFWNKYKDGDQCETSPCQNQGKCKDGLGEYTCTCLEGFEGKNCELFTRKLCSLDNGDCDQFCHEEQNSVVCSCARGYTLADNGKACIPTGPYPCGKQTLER

SMILES | pIC50
N#Cc1ccc(C2=NOC(CNC(=O)c3ccc(Cl)s3)C2)cc1 (centres unmarked) [Example 7, 5-Chloro-thiophene-2-carboxylic acid [3-(4-cyano-phenyl)-4,5-dihydro-isoxazol-5-ylmethyl]-amide] | ≥ 7.00
CN1CCC(Nc2ccc(-c3cc(CNC(=O)c4ccc(Cl)s4)on3)cc2)CC1 [Example 259, 5-Chloro-thiophene-2-carboxylic acid {3-[4-(1-methyl-piperidin-4-ylamino)-phenyl]-isoxazol-5-ylmethyl}-amide] | ≤ 6.30
COc1ccc(Nc2ccc(-c3cc(CNC(=O)c4ccc(Cl)s4)on3)cc2)cc1 [Example 251, 5-Chloro-thiophene-2-carboxylic acid {3-[4-(4-methoxy-phenylamino)-phenyl]-isoxazol-5-ylmethyl}-amide] | ≤ 6.30
O=C(O)c1ccc(-c2cc(CNC(=O)c3ccc(Cl)s3)on2)cc1 [Example 159, 4-(5-{[(5-Chloro-thiophene-2-carbonyl)-amino]-methyl}-isoxazol-3-yl)-benzoic acid] | ≤ 6.30
O=C(NCc1cc(-c2ccc(Nc3ccncc3)cc2)no1)c1ccc(Cl)s1 [Example 254, 5-Chloro-thiophene-2-carboxylic acid {3-[4-(pyridin-4-ylamino)-phenyl]-isoxazol-5-ylmethyl}-amide] | ≥ 7.00
CN(Cc1ccco1)C(=N)c1ccc(C2=NOC(CNC(=O)c3ccc(Cl)s3)C2)cc1 (centres unmarked) [Example 15, 5-Chloro-thiophene-2-carboxylic acid {3-[4-(N-furan-2-ylmethyl-N-methyl-carbamimidoyl)-phenyl]-4,5-dihydro-isoxazol-5-ylmethyl}-amide] | 6.30 to 7.00
O=C(NCC1CC(c2ccc(N3CCCC3=O)cc2)=NO1)c1ccc(Cl)s1 (centres unmarked) [Example 240, 5-Chloro-thiophene-2-carboxylic acid {3-[4-(2-oxo-pyrrolidin-1-yl)-phenyl]-4,5-dihydro-isoxazol-5-ylmethyl}-amide] | ≥ 7.00
O=C(NCC1CC(c2ccc(Oc3ccccc3)cc2)=NO1)c1ccc(Cl)s1 (centres unmarked) [Example 5, 5-Chloro-thiophene-2-carboxylic acid [3-(4-phenoxy-phenyl)-4,5-dihydro-isoxazol-5-ylmethyl]-amide] | ≤ 6.30
CN(C)C(=N)c1ccc(-c2cc(CNC(=O)c3ccc(Cl)s3)on2)cc1 [Example 21, 5-Chloro-thiophene-2-carboxylic acid {3-[4-(N,N-dimethyl-carbamimidoyl)-phenyl]-isoxazol-5-ylmethyl}-amide] | ≥ 7.00
CN(C)C(=N)c1ccc(C2=NOC(CNC(=O)c3ccc(Cl)s3)C2)c(N(C)C)c1 (centres unmarked) [Example 74, 5-Chloro-thiophene-2-carboxylic acid {3-[2-dimethylamino-4-(N,N-dimethyl-carbamimidoyl)-phenyl]-4,5-dihydro-isoxazol-5-ylmethyl}-amide] | 6.30 to 7.00

Results, then the compound that gave them:

pIC50 | SMILES
≥ 7.00 | O=C(NCc1cn(-c2ccc(-n3cccc(Cl)c3=O)cc2)nn1)c1ccc(Cl)s1 [Example 292, 5-Chloro-N-((1-(4-(3-chloro-2-oxopyridin-1(2H)-yl)phenyl)-1H-1,2,3-triazol-4-yl)methyl)thiophene-2-carboxamide]
≤ 6.30 | O=C(NCC1CC(c2ccc(Nc3c(Cl)cncc3Cl)cc2)=NO1)c1ccc(Cl)s1 (centres unmarked) [Example 402, 5-Chloro-N-((3-(4-(3,5-dichloropyridin-4-ylamino)phenyl)-4,5-dihydroisoxazol-5-yl)methyl)thiophene-2-carboxamide]
≥ 7.00 | COCCN(C)C(=N)c1ccc(-n2cc(CNC(=O)c3ccc(Cl)s3)nn2)cc1 [Example 316, N-((1-(4-(N-(2-Methoxyethyl)-N-methylcarbamimidoyl)phenyl)-1H-1,2,3-triazol-4-yl)methyl)-5-chlorothiophene-2-carboxamide]
≥ 7.00 | CN1CCN=C1c1ccc(-n2cnc(CNC(=O)c3ccc(Cl)s3)c2)cc1 [Example 365, 5-Chloro-N-((1-(4-(1-methyl-4,5-dihydro-1H-imidazol-2-yl)phenyl)-1H-imidazol-4-yl)methyl)thiophene-2-carboxamide]
